This note sets out measurements from patent US8541442B2, “Indole derivatives as anticancer agents” (Janssen Pharmaceutica N.V., priority 2009, dated 2013).

Series [1] relates to human prostate cancer cell line DU145. The experiment in a line: Alamar Blue cell proliferation assay, DU145. Type of series: cell-based. To be noted: for DU145 cell proliferation inhibition pIC50: DU145 cells; for IC50: Homo sapiens, DU-145, DU145 cells, read-out: DU145 cell proliferation inhibition pIC50 (converted). As for the experimental part: For experiments in 384 wells plates the cells were seeded at a density of 5×10^3 cells/ml in Falcon 384-well culture plates (Life Technologies, Merelbeke, Belgium), black with clear bottom, in 45 μl culture medium. Cells were allowed to adhere to plastic for 24 hr. The tested compound was pre-diluted (1/50 in culture medium) and 5 μl pre-diluted compound was added to the wells. Following 4-day incubation, 10 μl of the Alamar Blue solution was added to each well and the cells were further incubated for 5 hrs (A2780) at 37° C. The fluorescence intensity was measured for each well with a Fluorescence plate reader (Fluorskan, Labsystems, 540 nm excitation and 590 nm emission)
The antiproliferative activity was calculated as percentage of remaining viable cells in treated versus control (untreated cells) conditions. Within an experiment, the result for each experimental condition is the mean of 3 replicate wells. When appropriate, the experiments were repeated to establish full concentration-response curves. When appropriate, IC50-values (concentration of the drug, needed to reduce cell growth to 50% of the control) were computed using probit analysis for graded data (Finney, D. J., Probit Analyses, 2nd Ed. Chapter 10, Graded Responses, Cambridge University Press, Cambridge 1962). Herein the effects of test compounds are expressed as pIC50 (the negative log value of the IC50-value (M)) (see Table 5A).
Compounds were also tested according to the above protocol but using other cell lines: colorectal cancer cell line HCT116, non-small cell lung cancer cell line H1299, human prostate cancer cell line DU145.
(Resazurin is reduced to fluorescent resorufin, in cell work by metabolically active cells.)

The subject of another series is Male NMRI mice. The experiment in a line: Ro-4-1284 antagonism in mice. Type of series: in vivo. The method, then: The test is a modification of a procedure described by Colpaert et al. (1975).^3 Male NMRI mice (22±3 g) were housed in macrolon observation cages (L×W×H: 11×12×17 cm; n=3 per cage). At the start of the experiments immediately before test compound administration, the initial body temperature of the mice was measured with a precision of 0.1° C. by inserting the thermo-sensitive probe (1.0 mm diameter) of an electric thermometer (Comark) to a constant depth of 3 cm into the esophagus until a stable reading was obtained. The right eye pupil diameter was measured with a graduated microscope and expressed in 1/24 mm units. Fifteen min after test compound administration, the mice were challenged with Ro-4-1284 (10 mg/kg, s.c.). Ro-4-1284 is a reserpine-like vesicular monoamine transport (VMAT-2) inhibitor, which rapidly depletes secretory vesicles.^3,4 Fifteen, 30 and 60 min after challenge, the mice were scored for palpebral opening (0, 1, 2, 3, 4, 5) and locomotor activity (−1, 0, 1, 2, 3). At the 60-min interval, immediately after the scoring of overt behavior, the right eye pupil diameter and the esophageal temperature were measured again. Abnormal phenomena such as intensive sniffing, chewing, rearing, hyperemia, piloerection, salivation, tremors, convulsions and death were noted (the latter phenomena were also noted when occurring before Ro-4-1284 administration). Criteria for drug-induced effects: reversal of ptosis: palpebral opening score >1 at 15, 30 or 60 min (2.7, 0.5 and 0% false positive controls, respectively; n>350); induction of prostration: score −1 for locomotion at 15, 30 or 60 min (never observed in controls); reversal of hypomotility: score >0 for locomotion at 15, 30 and 60 min (2.2, 0.8 and 0% false positive controls, respectively); reversal of miosis: pupil diameter >5 units at 60 min (0.8% false positives); potentiation of hypothermia: temperature decrease (over the 1-h time interval)>9.0° C. (1.4% false positives); reversal of hypothermia: temperature decrease <3.0° C. (1.8% false positives).
According to the standard procedure, R0-4-1284 is injected 15 min following subcutaneous or oral administration and observations start 15 min later. Doses are initially given to 3 animals. When at least 2 out of the 3 animals show activity for at least one of the observations, the compound is considered active.

[2] abbreviates: 80 mg/kg oral administration, 3 animals.

Regarding `COc1cc(Nc2ccnc3c2CCC3O)ccc1NCCc1c[nH]c2c(C(C)(C)O)cccc12` (stereo not drawn) [Compound 11], the “DU145 cell proliferation inhibition pIC50” value in series [1] came to 6.21.

`C=C(C)c1cccc2c(CCNc3ccc(Nc4ccnc5c4CCC5OC)cc3)c[nH]c12` (stereo not drawn) [Compound 7]: in series [1], the IC50 was 0.251 µM. In the series with Male NMRI mice (setting [2]), the “activity on reversal of hypomotility” value is “did not show activity”, the “activity on reversal of miosis” value is reported as “did not show activity” and the “activity on reversal of ptosis” value is given as “did not show activity”.

On to `Cc1cc(Nc2ccnc3c2CCC3O)ccc1NCCc1c[nH]c2c(CCO)cccc12` (single isomer, unassigned) [Compound 23], for which the “DU145 cell proliferation inhibition pIC50” value in series [1] is 5.

For the compound `CC(C)(O)c1cccc2c(CCNc3ccc(Nc4ccnc5c4CCC5(C)O)cc3)c[nH]c12` (single isomer, unassigned) [Compound 30], the “DU145 cell proliferation inhibition pIC50” value in series [1] was 6.14. In addition, in the series with Male NMRI mice (setting [2]), the “activity on reversal of hypomotility” value is on record as “did not show activity”, the “activity on reversal of miosis” value is “did not show activity” and the “activity on reversal of ptosis” value is on record as “did not show activity”.

In the case of `Cc1cc(Nc2ccncc2)ccc1NCCc1c[nH]c2c(C(C)(C)O)cccc12` [Compound 2], the IC50 in series [1] was 0.692 µM.

`COC1CCc2c(Nc3ccc(NCCc4c[nH]c5c(C(C)(C)O)cccc45)cc3)ccnc21` (single isomer, unassigned) [Compound 25]: in the series with Male NMRI mice (setting [2]), the “activity on reversal of hypomotility” value is on record as “did not show activity”, the “activity on reversal of miosis” value is listed as “did not show activity” and the “activity on reversal of ptosis” value is given as “did not show activity”.

Regarding `COC1CCc2c(Nc3ccc(NCCc4c[nH]c5c(C(C)(C)O)cccc45)c(C)c3)ccnc21` (single isomer, unassigned) [Compound 29], the “DU145 cell proliferation inhibition pIC50” value in series [1] stood at 6.58. In the series on Male NMRI mice (setting [2]), the “activity on reversal of hypomotility” value is on record as “did not show activity”, the “activity on reversal of miosis” value is “did not show activity” and the “activity on reversal of ptosis” value was “did not show activity”.

`Cc1cc(Nc2ccnc3c2CCC3(C)O)ccc1NCCc1c[nH]c2c(C(C)(C)O)cccc12` (single isomer, unassigned) [Compound 26]: the “DU145 cell proliferation inhibition pIC50” value in series [1] was 6.18. Further, in the series on Male NMRI mice (setting [2]), the “activity on reversal of hypomotility” value is recorded as “did not show activity”, the “activity on reversal of miosis” value was “did not show activity” and the “activity on reversal of ptosis” value was “did not show activity”.

Consider `COC1CCc2c(Nc3ccc(NCCc4c[nH]c5c(C(C)(C)O)cccc45)cc3)ccnc21` (single isomer, unassigned) [Compound 24], for which the IC50 in series [1] is 0.295 µM. Moreover, in the series with Male NMRI mice (setting [2]), the “activity on reversal of hypomotility” value is listed as “did not show activity”, the “activity on reversal of miosis” value was “did not show activity” and the “activity on reversal of ptosis” value is listed as “did not show activity”.

Take `Cc1cc(Nc2ccnc3c2CCC3O)ccc1NCCc1c[nH]c2c(CCC(C)O)cccc12` (stereo not drawn) [Compound 9]: the IC50 in series [1] was 5.5 µM.

With `COC1CCc2c(Nc3ccc(NCCc4c[nH]c5c(C(C)O)cccc45)c(C)c3)ccnc21` (stereo not drawn) [Compound 16], in series [1], the “DU145 cell proliferation inhibition pIC50” value was found to be 5.98.

`Cc1cc(Nc2ccnc3c2CCC3(C)O)ccc1NCCc1c[nH]c2c(C(C)(C)O)cccc12` (single isomer, unassigned) [Compound 27]: the IC50 in series [1] is 1 µM. For the same compound, in the series on Male NMRI mice (setting [2]), the “activity on reversal of hypomotility” value is “did not show activity”, the “activity on reversal of miosis” value is listed as “did not show activity” and the “activity on reversal of ptosis” value is recorded as “did not show activity”.

As to `Cc1cc(Nc2ccnc3c2CCC3=O)ccc1NCCc1c[nH]c2c(C(C)O)cccc12` (stereo not drawn) [Compound 4], the IC50 in series [1] was 5.13 µM. Moreover, in the series with Male NMRI mice (40 mg/kg), the “activity on reversal of hypomotility” value was “did not show activity”, the “activity on reversal of miosis” value is reported as “did not show activity” and the “activity on reversal of ptosis” value was “did not show activity”.

With `Cc1cc(Nc2ccnc3c2CCC3(C)O)ccc1NCCc1c[nH]c2c(C(C)O)cccc12` (stereo not drawn) [Compound 10], the “DU145 cell proliferation inhibition pIC50” value in series [1] stood at 5.65.

`Cc1cc(Nc2ccnc(CO)c2)ccc1NCCc1c[nH]c2c(C(C)(C)O)cccc12` [Compound 19]: in series [1], the “DU145 cell proliferation inhibition pIC50” value was 5.74.

As to `Cc1cc(Nc2ccnc3c2CCC3O)ccc1NCCc1c[nH]c2c(C(C)(C)O)cccc12` (stereo not drawn) [Compound 18], the “DU145 cell proliferation inhibition pIC50” value in series [1] is recorded as 6.40. For the same compound, in the series with Male NMRI mice (setting [2]), the “activity on reversal of hypomotility” value was “did not show activity”, the “activity on reversal of miosis” value is reported as “did not show activity” and the “activity on reversal of ptosis” value is on record as “did not show activity”.

Regarding `Cc1cc(Nc2ccnc3c2CCC3(C)O)ccc1NCCc1c[nH]c2c(C(C)(C)O)cccc12` (stereo not drawn) [Compound 1], the IC50 in series [1] is 1.2 µM. Moreover, in the series with Male NMRI mice (setting [2]), the “activity on reversal of hypomotility” value is recorded as “did not show activity”, the “activity on reversal of miosis” value was “did not show activity” and the “activity on reversal of ptosis” value is listed as “did not show activity”.

`Cc1cc(Nc2ccnc3c2CCC3O)ccc1NCCc1c[nH]c2c(C(C)(C)O)cccc12` (stereo not drawn) [Compound 20]: in series [1], the “DU145 cell proliferation inhibition pIC50” value is given as 5.73. In the series with Male NMRI mice (setting [2]), the “activity on reversal of hypomotility” value is listed as “did not show activity”, the “activity on reversal of miosis” value is reported as “did not show activity” and the “activity on reversal of ptosis” value is “did not show activity”.

`Cc1cc(Nc2ccnc(CO)c2)ccc1NCCc1c[nH]c2c(C(C)O)cccc12` (stereo not drawn) [Compound 5]: the IC50 in series [1] was 2.75 µM.

`CC(C)(O)c1cccc2c(CCNc3ccc(Nc4ccnc5c4CCC5(C)O)cc3)c[nH]c12` (single isomer, unassigned) [Compound 31]: the “DU145 cell proliferation inhibition pIC50” value in series [1] is recorded as 6.04. Moreover, in the series on Male NMRI mice (setting [2]), the “activity on reversal of hypomotility” value is “did not show activity”, the “activity on reversal of miosis” value was “did not show activity” and the “activity on reversal of ptosis” value is recorded as “did not show activity”.

On to `Cc1cc(Nc2ccncc2)ccc1NCCc1c[nH]c2c(C(O)C(C)C)cccc12` (stereo not drawn) [Compound 22], for which the “DU145 cell proliferation inhibition pIC50” value in series [1] was found to be 5.07.

On to `COC1CCc2c(Nc3ccc(NCCc4c[nH]c5c(C(C)(C)O)cccc45)c(C)c3)ccnc21` (single isomer, unassigned) [Compound 28], for which the “DU145 cell proliferation inhibition pIC50” value in series [1] was 6.52. Moreover, in the series on Male NMRI mice (setting [2]), the “activity on reversal of hypomotility” value is “did not show activity”, the “activity on reversal of miosis” value is “did not show activity” and the “activity on reversal of ptosis” value was “did not show activity”.
